According to paper PMC9611521, “Optimization of Resveratrol Used as a Scaffold to Design Histone Deacetylase (HDAC-1 and HDAC-2) Inhibitors” (Pharmaceuticals, 2022):

Tests used:
Format in all cases: biochemical
HDAC-1 = HDAC-1 (Homo sapiens, UniProt Q13547); experiment: Enzymatic HDAC inhibition assay (fluorescence), HDAC-1
Experimental: (§1) Enzymatic assays to evaluate HDAC inhibition were performed, and the design involved three steps: (a) Preliminary screening to identify the most promising compounds; (b) Evaluation by a panel of HDAC isoforms to investigate selectivity; and (c) Determination of IC50 values. Firstly, compounds (4–7; 15–26) were evaluated at 10 µM against HDAC-1 and HDAC-2 (Table 2).
(§2) The enzymatic assay to evaluate HDAC inhibitory effects for all final compounds against the distinct isoforms was carried out in accordance with the previously described procedures (Lopes et al., 2021). All compounds were initially screened at 10 µM against HDAC-1 and HDAC-2. […] All the compounds were dissolved in DMSO. A serial dilution of the compounds was performed in 100% DMSO with the highest concentration at 1 mM. Each intermediate compound dilution (in 100% DMSO) was diluted 10x in assay buffer to form a 10% DMSO intermediate dilution in HDAC assay buffer. 5 µL of this dilution was added to a 50 µL reaction to bring the final concentration of DMSO to 1% in all the reactions. Three independent experiments were carried out in triplicate for all experiments. The fluorescence intensity was measured at an excitation of 360 nm and emission of 460 nm using a Tecan Infinite M1000 microplate reader, and the percentage of activity was calculated using the formula: % activity = (F − Fb)/(Ft − Fb), where F = the intensity of fluorescence in the presence of the compound. In the absence of the test compound, the fluorescent intensity (Ft) in each dataset was defined as 100% activity, while in the absence of HDAC, the fluorescent intensity (Fb) in each dataset was set to 0% activity.

HDAC-2 = HDAC-2 (Homo sapiens, UniProt Q92769); experiment: Enzymatic HDAC inhibition assay (fluorescence), HDAC-2
Experimental: as §1, §2

HDAC-4 = HDAC-4 (Homo sapiens, UniProt P56524); experiment: Enzymatic HDAC selectivity panel, HDAC-4; conditions: compound at 10 µM
Experimental: as §1
as §2, with “Three independent experiments were carried out in triplicate for all experiments.” left out, “In the absence of the test compound, the fluorescent intensity (Ft) in each dataset was defined as 100% activity, while in the absence of HDAC, the fluorescent intensity (Fb) in each dataset was set to 0% activity.” left out

HDAC-5 = HDAC-5 (Homo sapiens, UniProt Q9UQL6); experiment: Enzymatic HDAC selectivity panel, HDAC-5; conditions: compound at 10 µM
Experimental: as §1
as §2, with “Three independent experiments were carried out in triplicate for all experiments.” left out, “In the absence of the test compound, the fluorescent intensity (Ft) in each dataset was defined as 100% activity, while in the absence of HDAC, the fluorescent intensity (Fb) in each dataset was set to 0% activity.” left out

HDAC-7 = molecular target: T1, HDAC-7 (Homo sapiens, UniProt Q8WUI4); experiment: Enzymatic HDAC selectivity panel, HDAC-7; conditions: compound at 10 µM
T1 sequence (Q8WUI4 1-952): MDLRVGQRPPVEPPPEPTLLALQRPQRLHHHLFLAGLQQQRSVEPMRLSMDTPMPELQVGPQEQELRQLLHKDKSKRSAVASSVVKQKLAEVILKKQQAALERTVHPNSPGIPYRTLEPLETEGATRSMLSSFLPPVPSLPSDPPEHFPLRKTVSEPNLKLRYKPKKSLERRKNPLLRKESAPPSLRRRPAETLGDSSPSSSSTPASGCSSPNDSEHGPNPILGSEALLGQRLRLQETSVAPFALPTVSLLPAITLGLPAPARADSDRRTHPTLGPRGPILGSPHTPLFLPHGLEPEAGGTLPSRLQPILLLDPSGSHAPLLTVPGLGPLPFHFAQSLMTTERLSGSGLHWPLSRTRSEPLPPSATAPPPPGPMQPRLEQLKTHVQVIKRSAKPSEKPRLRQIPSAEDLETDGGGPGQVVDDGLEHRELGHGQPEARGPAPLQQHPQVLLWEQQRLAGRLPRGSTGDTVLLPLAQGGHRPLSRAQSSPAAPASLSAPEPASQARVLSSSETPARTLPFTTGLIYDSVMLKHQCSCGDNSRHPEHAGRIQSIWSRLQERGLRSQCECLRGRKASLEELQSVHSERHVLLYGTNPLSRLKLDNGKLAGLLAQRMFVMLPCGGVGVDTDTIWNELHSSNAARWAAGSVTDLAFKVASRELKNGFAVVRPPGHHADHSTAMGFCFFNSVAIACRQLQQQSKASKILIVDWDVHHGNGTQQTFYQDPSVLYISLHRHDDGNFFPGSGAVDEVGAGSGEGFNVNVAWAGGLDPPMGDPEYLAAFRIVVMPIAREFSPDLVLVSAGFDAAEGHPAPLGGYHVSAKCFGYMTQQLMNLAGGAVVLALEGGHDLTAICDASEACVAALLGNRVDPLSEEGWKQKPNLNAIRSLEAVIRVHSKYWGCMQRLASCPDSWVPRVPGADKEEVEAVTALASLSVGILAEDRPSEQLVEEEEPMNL
Experimental: as §1
as §2, with “Three independent experiments were carried out in triplicate for all experiments.” left out, “In the absence of the test compound, the fluorescent intensity (Ft) in each dataset was defined as 100% activity, while in the absence of HDAC, the fluorescent intensity (Fb) in each dataset was set to 0% activity.” left out

HDAC-11 = molecular target: T2, HDAC-11 (Homo sapiens, UniProt Q96DB2); experiment: Enzymatic HDAC selectivity panel, HDAC-11; conditions: compound at 10 µM
T2 sequence (Q96DB2 1-347): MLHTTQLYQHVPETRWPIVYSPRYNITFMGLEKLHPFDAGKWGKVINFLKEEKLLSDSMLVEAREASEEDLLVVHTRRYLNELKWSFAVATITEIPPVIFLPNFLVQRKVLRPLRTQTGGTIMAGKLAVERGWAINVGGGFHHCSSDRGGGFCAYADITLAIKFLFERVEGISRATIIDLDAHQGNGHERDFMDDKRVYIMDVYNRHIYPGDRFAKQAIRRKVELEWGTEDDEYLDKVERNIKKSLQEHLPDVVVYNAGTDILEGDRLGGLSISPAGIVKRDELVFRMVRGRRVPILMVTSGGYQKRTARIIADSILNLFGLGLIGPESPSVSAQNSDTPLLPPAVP
Experimental: as §1
as §2, with “Three independent experiments were carried out in triplicate for all experiments.” left out, “In the absence of the test compound, the fluorescent intensity (Ft) in each dataset was defined as 100% activity, while in the absence of HDAC, the fluorescent intensity (Fb) in each dataset was set to 0% activity.” left out

Sequence of HDAC-1 (Q13547 whole entry, canonical isoform): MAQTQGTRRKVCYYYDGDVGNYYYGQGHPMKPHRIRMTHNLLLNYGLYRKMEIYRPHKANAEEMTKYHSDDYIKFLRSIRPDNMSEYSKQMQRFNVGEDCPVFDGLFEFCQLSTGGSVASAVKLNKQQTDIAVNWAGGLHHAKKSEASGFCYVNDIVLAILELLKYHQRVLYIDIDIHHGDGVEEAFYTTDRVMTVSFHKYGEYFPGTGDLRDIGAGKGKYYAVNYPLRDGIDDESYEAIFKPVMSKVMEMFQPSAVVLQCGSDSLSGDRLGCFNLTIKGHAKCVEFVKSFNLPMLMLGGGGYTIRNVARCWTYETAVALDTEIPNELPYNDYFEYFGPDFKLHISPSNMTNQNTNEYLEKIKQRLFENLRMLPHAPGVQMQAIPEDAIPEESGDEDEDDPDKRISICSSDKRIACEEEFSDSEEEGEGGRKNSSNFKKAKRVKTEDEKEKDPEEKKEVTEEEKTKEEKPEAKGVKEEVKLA
Sequence of HDAC-2 (Q92769 whole entry): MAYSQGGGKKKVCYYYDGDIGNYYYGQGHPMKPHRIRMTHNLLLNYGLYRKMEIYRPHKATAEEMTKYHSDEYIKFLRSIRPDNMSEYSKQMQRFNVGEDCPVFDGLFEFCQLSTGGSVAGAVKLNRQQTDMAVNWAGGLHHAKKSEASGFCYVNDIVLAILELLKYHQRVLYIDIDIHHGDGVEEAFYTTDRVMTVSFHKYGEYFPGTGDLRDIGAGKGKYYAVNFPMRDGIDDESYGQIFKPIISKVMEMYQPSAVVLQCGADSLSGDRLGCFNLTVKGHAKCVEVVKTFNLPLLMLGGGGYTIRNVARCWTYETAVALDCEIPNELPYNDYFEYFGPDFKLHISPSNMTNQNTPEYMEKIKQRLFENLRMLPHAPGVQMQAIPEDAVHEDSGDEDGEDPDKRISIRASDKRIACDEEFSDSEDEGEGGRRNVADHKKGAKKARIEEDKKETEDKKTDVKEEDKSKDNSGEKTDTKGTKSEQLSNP
Sequence of HDAC-4 (P56524 whole entry): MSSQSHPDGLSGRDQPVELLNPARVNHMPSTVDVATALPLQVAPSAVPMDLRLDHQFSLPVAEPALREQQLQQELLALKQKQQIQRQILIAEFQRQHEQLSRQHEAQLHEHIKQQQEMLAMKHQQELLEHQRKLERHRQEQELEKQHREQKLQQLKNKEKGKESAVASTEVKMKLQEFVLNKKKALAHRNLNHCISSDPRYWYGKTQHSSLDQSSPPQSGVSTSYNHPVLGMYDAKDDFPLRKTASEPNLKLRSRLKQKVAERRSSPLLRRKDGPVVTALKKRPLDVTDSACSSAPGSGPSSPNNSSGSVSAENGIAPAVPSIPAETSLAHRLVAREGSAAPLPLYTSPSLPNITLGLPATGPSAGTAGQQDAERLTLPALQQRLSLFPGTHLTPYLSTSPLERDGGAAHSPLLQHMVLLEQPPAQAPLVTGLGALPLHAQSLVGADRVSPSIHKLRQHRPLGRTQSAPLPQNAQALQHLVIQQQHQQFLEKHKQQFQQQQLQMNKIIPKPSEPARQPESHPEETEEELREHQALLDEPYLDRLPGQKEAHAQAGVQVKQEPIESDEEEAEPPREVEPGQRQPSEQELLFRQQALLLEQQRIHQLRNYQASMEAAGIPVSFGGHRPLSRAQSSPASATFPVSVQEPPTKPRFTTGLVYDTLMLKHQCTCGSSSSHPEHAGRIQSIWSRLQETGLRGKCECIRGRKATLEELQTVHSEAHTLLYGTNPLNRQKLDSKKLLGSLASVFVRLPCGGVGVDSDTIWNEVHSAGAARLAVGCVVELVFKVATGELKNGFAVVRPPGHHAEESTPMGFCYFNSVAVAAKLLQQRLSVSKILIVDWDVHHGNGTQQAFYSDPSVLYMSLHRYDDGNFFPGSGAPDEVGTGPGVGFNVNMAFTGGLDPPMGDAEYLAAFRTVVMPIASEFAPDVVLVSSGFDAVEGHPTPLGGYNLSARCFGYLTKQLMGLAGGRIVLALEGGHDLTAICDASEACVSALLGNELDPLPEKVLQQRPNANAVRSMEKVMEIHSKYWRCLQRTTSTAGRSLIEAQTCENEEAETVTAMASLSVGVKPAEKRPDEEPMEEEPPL
Sequence of HDAC-5 (Q9UQL6 whole entry): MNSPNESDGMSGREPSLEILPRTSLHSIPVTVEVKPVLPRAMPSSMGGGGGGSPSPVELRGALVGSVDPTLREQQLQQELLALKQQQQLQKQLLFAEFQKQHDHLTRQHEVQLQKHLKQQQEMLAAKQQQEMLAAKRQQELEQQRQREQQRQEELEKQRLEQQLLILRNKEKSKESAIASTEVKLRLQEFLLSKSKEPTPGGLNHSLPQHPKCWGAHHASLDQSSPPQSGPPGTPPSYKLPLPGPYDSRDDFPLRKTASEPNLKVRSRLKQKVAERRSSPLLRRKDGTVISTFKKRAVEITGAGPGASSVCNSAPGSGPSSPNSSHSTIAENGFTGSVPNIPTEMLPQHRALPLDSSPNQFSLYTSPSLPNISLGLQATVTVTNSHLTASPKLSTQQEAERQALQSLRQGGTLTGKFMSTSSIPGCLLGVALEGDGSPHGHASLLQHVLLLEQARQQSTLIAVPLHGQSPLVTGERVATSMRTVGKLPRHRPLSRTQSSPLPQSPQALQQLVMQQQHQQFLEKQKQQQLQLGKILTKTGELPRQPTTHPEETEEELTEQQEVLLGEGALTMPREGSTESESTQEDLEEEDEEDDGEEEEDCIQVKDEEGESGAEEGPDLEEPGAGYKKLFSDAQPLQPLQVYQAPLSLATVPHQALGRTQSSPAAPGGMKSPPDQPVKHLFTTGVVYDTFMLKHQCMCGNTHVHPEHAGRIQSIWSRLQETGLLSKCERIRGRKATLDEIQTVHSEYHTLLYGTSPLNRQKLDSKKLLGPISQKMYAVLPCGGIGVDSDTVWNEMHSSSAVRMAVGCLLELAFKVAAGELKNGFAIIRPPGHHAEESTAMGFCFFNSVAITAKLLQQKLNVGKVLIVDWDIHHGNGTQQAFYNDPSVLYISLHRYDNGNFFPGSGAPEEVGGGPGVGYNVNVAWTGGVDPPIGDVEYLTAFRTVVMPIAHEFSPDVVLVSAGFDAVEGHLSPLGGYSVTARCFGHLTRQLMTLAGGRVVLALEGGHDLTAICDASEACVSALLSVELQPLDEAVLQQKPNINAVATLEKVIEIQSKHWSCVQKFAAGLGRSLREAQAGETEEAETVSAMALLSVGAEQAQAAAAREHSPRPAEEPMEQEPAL

inhibition at 10 µM (HDAC-1; compound at 10 µM): 92% | HDAC-1 inhibition (HDAC-1; compound at 10 µM, 10 µM): 93 ± 1.0% | IC50 (HDAC-1; substrate 10 µM): 440 nM | inhibition at 10 µM (HDAC-2; compound at 10 µM): 93% | HDAC-2 inhibition (HDAC-2; compound at 10 µM, 10 µM): 92 ± 0.8% | IC50 (HDAC-2; substrate 10 µM): 370 nM | inhibition at 10 µM (HDAC-4): 5 ± 0.4% | inhibition at 10 µM (HDAC-5): 5 ± 0.5% | inhibition at 10 µM (HDAC-7): 15 ± 0.7% | inhibition at 10 µM (HDAC-11): 15 ± 0.6%
Compound: Nc1ccc(CCc2ccc(C(=O)Nc3ccccc3N)cc2)cc1 [Compound (5)]
